{"source": "patent US20190192699A1", "about": "“NUCLEAR IMAGING AND RADIOTHERAPEUTICS AGENTS TARGETING CARBONIC ANHYDRASE IX AND USES THEREOF” (THE JOHNS HOPKINS UNIVERSITY, priority 2016, published 2019)", "test_system": "SK-RC-52 xenografts", "assay": "Biodistribution of [111In]XYIMSR-01 and [177Lu]XYIMSR-01", "format": "in vivo, mice", "method": "Cell Lines and Mouse Models. Animal experiments were performed in accordance with protocols approved by the Johns Hopkins Animal Care and Use Committee (ACUC). Six-week-old female NOD/SCID mice were purchased from the Animal Resource Core of the Sidney Kimmel Comprehensive Cancer Center of Johns Hopkins and were subcutaneously injected in the lower left flank or upper right flank with 1×10^6 SK-RC-52 cells in RPMI 1640 GlutaMAX™ media (Life Technologies, Frederick, Md.) supplemented with 1% fetal bovine serum (FBS). Mice were monitored for tumor size and used for SPECT/CT imaging when the size of the tumor reached 100 mm^3.\nBiodistribution of [^111In]XYIMSR-01 and [^177Lu]XYIMSR-01. Mice bearing SK-RC-52 xenografts at lower left flank were injected intravenously with 740 kBq (20 μCi) of [^111In]XYIMSR-01, or [^177Lu]XYIMSR-01 in 200 μL of PBS. For competitive blocking, same tumor bearing mice were injected with 740 kBq (20 μCi) of [^111In]XYIMSR-01 and 200 nmole of 1 in 200 μL of PBS. At 1 h, 4 h, 8 h, 24 h and 48 h post-injection, mice were sacrificed by cervical dislocation and the blood was immediately collected by cardiac puncture. Heart, lungs, pancreas, spleen, fat, brain, muscle, small intestines, liver, stomach, kidney, urinary bladder, and tumor were collected. Each organ was weighed and the tissue radioactivity was measured with an automated gamma counter (1282 Compugamma CS, Pharmacia/LKBNuclear, Inc., Mt. Waverly, Vic. Australia). The percentage of injected dose per gram of tissue (% ID/g) was calculated by comparison with samples of a standard dilution of the initial dose. All measurements were corrected for radioactive decay.\nData were expressed as mean±standard deviation (SD). Prism software (GraphPAD, San Diego, Calif.) was used to determine statistical significance. Statistical significance was calculated using a paired t test. P-values […] were considered significant.", "key": {"[1]": {"conditions": "24 hr + Block (200 nmole of 1 co-injected)"}}, "note": "Several values for one entry are separate records, joined by “and”; a condition that tells them apart may be missing. Equal values may be shown once."}
{"compound": "CC(CCC(=O)N[C@@H](CC(=O)N[C@@H](CC(=O)N[C@@H](CCCCn1cc(CCCC(=O)Nc2nnc(S(N)(=O)=O)s2)nn1)C(=O)NCCOCCOCCNC(=O)CN1CCN(CC(=O)[O-])CCN(CC(=O)[O-])CCN(CC(=O)[O-])CC1)C(=O)O)C(=O)O)(c1ccc(O)cc1)c1ccc(O)cc1.[111In+3]", "note": "[[^111In]XYIMSR-01]", "values": [{"measurement": "Biodistribution: Bladder", "setting": "1 hr post-injection", "result": "4.90 ± 4.96", "unit": "% ID/g"}, {"measurement": "Biodistribution: Blood", "setting": "1 hr post-injection", "result": "1.34 ± 0.17", "unit": "% ID/g"}, {"measurement": "Biodistribution: Brain", "setting": "1 hr post-injection", "result": "1.23 ± 1.10", "unit": "% ID/g"}, {"measurement": "Biodistribution: Fat", "setting": "1 hr post-injection", "result": "1.03 ± 0.24", "unit": "% ID/g"}, {"measurement": "Biodistribution: Heart", "setting": "1 hr post-injection", "result": "5.98 ± 0.53", "unit": "% ID/g"}, {"measurement": "Biodistribution: Kidney", "setting": "1 hr post-injection", "result": "71.26 ± 8.74", "unit": "% ID/g"}, {"measurement": "Biodistribution: Liver", "setting": "1 hr post-injection", "result": "8.36 ± 0.73", "unit": "% ID/g"}, {"measurement": "Biodistribution: Lung", "setting": "1 hr post-injection", "result": "45.85 ± 19.89", "unit": "% ID/g"}, {"measurement": "Biodistribution: Muscle", "setting": "1 hr post-injection", "result": "2.34 ± 2.19", "unit": "% ID/g"}, {"measurement": "Biodistribution: Pancreas", "setting": "1 hr post-injection", "result": "3.81 ± 0.72", "unit": "% ID/g"}, {"measurement": "Biodistribution: Small intestine", "setting": "1 hr post-injection", "result": "9.37 ± 1.26", "unit": "% ID/g"}, {"measurement": "Biodistribution: Spleen", "setting": "1 hr post-injection", "result": "0.52 ± 0.04", "unit": "% ID/g"}, {"measurement": "Biodistribution: Stomach", "setting": "1 hr post-injection", "result": "16.71 ± 2.46", "unit": "% ID/g"}, {"measurement": "Biodistribution: Tumor", "setting": "1 hr post-injection", "result": "26 % ID/g and 26.01 ± 5.74 % ID/g"}, {"measurement": "Tumor/Blood ratio", "setting": "1 hr post-injection", "result": "19.7 and 19.7 ± 4.8"}, {"measurement": "Tumor/Kidney ratio", "setting": "1 hr post-injection", "result": "0.36 ± 0.06"}, {"measurement": "Tumor/Muscle ratio", "setting": "1 hr post-injection", "result": "12.7 and 12.7 ± 5.8"}, {"measurement": "Biodistribution: Bladder", "setting": "4 hr post-injection", "result": "2.68 ± 1.89", "unit": "% ID/g"}, {"measurement": "Biodistribution: Blood", "setting": "4 hr post-injection", "result": "0.65 ± 0.06", "unit": "% ID/g"}, {"measurement": "Biodistribution: Brain", "setting": "4 hr post-injection", "result": "0.45 ± 0.06", "unit": "% ID/g"}, {"measurement": "Biodistribution: Fat", "setting": "4 hr post-injection", "result": "0.42 ± 0.22", "unit": "% ID/g"}, {"measurement": "Biodistribution: Heart", "setting": "4 hr post-injection", "result": "2.91 ± 0.45", "unit": "% ID/g"}, {"measurement": "Biodistribution: Kidney", "setting": "4 hr post-injection", "result": "41.52 ± 6.07", "unit": "% ID/g"}, {"measurement": "Biodistribution: Liver", "setting": "4 hr post-injection", "result": "4.00 ± 0.8", "unit": "% ID/g"}, {"measurement": "Biodistribution: Lung", "setting": "4 hr post-injection", "result": "17.85 ± 3.55", "unit": "% ID/g"}, {"measurement": "Biodistribution: Muscle", "setting": "4 hr post-injection", "result": "1.01 ± 0.28", "unit": "% ID/g"}, {"measurement": "Biodistribution: Pancreas", "setting": "4 hr post-injection", "result": "1.54 ± 0.40", "unit": "% ID/g"}, {"measurement": "Biodistribution: Small intestine", "setting": "4 hr post-injection", "result": "4.27 ± 0.69", "unit": "% ID/g"}, {"measurement": "Biodistribution: Spleen", "setting": "4 hr post-injection", "result": "0.51 ± 0.08", "unit": "% ID/g"}, {"measurement": "Biodistribution: Stomach", "setting": "4 hr post-injection", "result": "7.91 ± 1.28", "unit": "% ID/g"}, {"measurement": "Biodistribution: Tumor", "setting": "4 hr post-injection", "result": "20.8 % ID/g and 20.83 ± 6.25 % ID/g"}, {"measurement": "Tumor/Blood ratio", "setting": "4 hr post-injection", "result": "31.9 ± 9.4"}, {"measurement": "Tumor/Kidney ratio", "setting": "4 hr post-injection", "result": "0.50 ± 0.15"}, {"measurement": "Tumor/Muscle ratio", "setting": "4 hr post-injection", "result": "21.4 ± 7.2"}, {"measurement": "Biodistribution: Bladder", "setting": "8 hr post-injection", "result": "2.28 ± 0.51", "unit": "% ID/g"}, {"measurement": "Biodistribution: Blood", "setting": "8 hr post-injection", "result": "0.48 ± 0.02", "unit": "% ID/g"}, {"measurement": "Biodistribution: Brain", "setting": "8 hr post-injection", "result": "0.59 ± 0.09", "unit": "% ID/g"}, {"measurement": "Biodistribution: Fat", "setting": "8 hr post-injection", "result": "0.45 ± 0.08", "unit": "% ID/g"}, {"measurement": "Biodistribution: Heart", "setting": "8 hr post-injection", "result": "2.61 ± 0.35", "unit": "% ID/g"}, {"measurement": "Biodistribution: Kidney", "setting": "8 hr post-injection", "result": "28.79 ± 21.35", "unit": "% ID/g"}, {"measurement": "Biodistribution: Liver", "setting": "8 hr post-injection", "result": "3.65 ± 0.65", "unit": "% ID/g"}, {"measurement": "Biodistribution: Lung", "setting": "8 hr post-injection", "result": "17.39 ± 8.99", "unit": "% ID/g"}, {"measurement": "Biodistribution: Muscle", "setting": "8 hr post-injection", "result": "1.09 ± 0.15", "unit": "% ID/g"}, {"measurement": "Biodistribution: Pancreas", "setting": "8 hr post-injection", "result": "1.61 ± 0.28", "unit": "% ID/g"}, {"measurement": "Biodistribution: Small intestine", "setting": "8 hr post-injection", "result": "4.31 ± 0.67", "unit": "% ID/g"}, {"measurement": "Biodistribution: Spleen", "setting": "8 hr post-injection", "result": "0.64 ± 0.07", "unit": "% ID/g"}, {"measurement": "Biodistribution: Stomach", "setting": "8 hr post-injection", "result": "8.74 ± 1.26", "unit": "% ID/g"}, {"measurement": "Biodistribution: Tumor", "setting": "8 hr post-injection", "result": "34.0 % ID/g and 34.00 ± 15.16 % ID/g"}, {"measurement": "Tumor/Blood ratio", "setting": "8 hr post-injection", "result": "77.0 ± 32.5"}, {"measurement": "Tumor/Kidney ratio", "setting": "8 hr post-injection", "result": "3.1 ± 3.1"}, {"measurement": "Tumor/Muscle ratio", "setting": "8 hr post-injection", "result": "34.2 ± 16.0"}, {"measurement": "Tumor/liver ratio", "setting": "24 h", "result": 8.5}, {"measurement": "uptake to tumors with simultaneously injected non-radioactive competitor 1", "setting": "24 h and 48 h post injection", "result": "~1", "unit": "%"}, {"measurement": "tumor/organ ratio, all other organs", "setting": "24 h post-injection", "result": "≥ 10"}, {"measurement": "Biodistribution: Bladder", "setting": "[1]", "result": "0.20 ± 0.07", "unit": "% ID/g"}, {"measurement": "Biodistribution: Blood", "setting": "[1]", "result": "0.03 ± 0.00", "unit": "% ID/g"}, {"measurement": "Biodistribution: Brain", "setting": "[1]", "result": "0.03 ± 0.00", "unit": "% ID/g"}, {"measurement": "Biodistribution: Fat", "setting": "[1]", "result": "0.02 ± 0.01", "unit": "% ID/g"}, {"measurement": "Biodistribution: Heart", "setting": "[1]", "result": "0.04 ± 0.01", "unit": "% ID/g"}, {"measurement": "Biodistribution: Kidney", "setting": "[1]", "result": "0.68 ± 0.14", "unit": "% ID/g"}, {"measurement": "Biodistribution: Liver", "setting": "[1]", "result": "0.10 ± 0.02", "unit": "% ID/g"}]}
